Data reported in US5948786A, “Piperidinylpyrimidine derivatives” (Sumitomo Pharmaceuticals Company, Limited, priority 1996, dated 1999).

Test system: TNF α production from mouse macrophages
Experiment: Inhibitory activity of compound on TNF α Production from mouse macrophages (LPS-induced PEC's)
Format: cell-based
Conditions: Macrophage, LPS 10 μg/ml, 18 hours
Procedure: BALB/c mice (female, 5-7 weeks old, Charles River Japan, Tokyo, Japan) were injected i.p. with 1 ml of 2.4% thioglycollate broth. After 4 days, the mice were sacrificed. Peritoneal exudated cells (PEC's) were collected from the peritoneal cavity by washing with minimum essential medium (MEM, Handai biseibutubyou kenkyukai, Osaka, Japan) containing 5 U/ml heparin, 1% fetal bovine serum (FBS, Filtron, Victoria, Australia) and antibiotics. The cells were washed two times with MEM, suspended with MEM containing 10% FBS (complete MEM, cMEM) and seeded into 96-well culture plates (Costar, Cambridge, Mass., USA) at 2×10^5 cells/well. The cells were incubated for 1 hour at 37° C. in a humidified 5% CO2 incubator and washed two times to remove non-adherent cells.
TNF α was induced by 10 μg/ml of LPS (E. coli O111B4, DIFCO, Detroit, Mich., USA) the cells were cultured for 18 hours at 37° C. A compound of the present invention was dissolved in DMSO and added to the culture simultaneously with LPS. The final DMSO concentration was below 0.1%. The TNF α concentration in supernatant and recombinant mouse TNF α standard (rm-TNF α, Genzyme, Mass., USA) were incubated overnight at 4° C. in a 96-well plate coated with anti-mouse TNF α monoclonal antibody (PharMingen, San Diego, Calif., USA) that previously had been blocked with 10% FBS. Each well of the plate first was incubated at room temperature with biotinylated anti-mouse TNF α polyclonal antibodies (PharMingen) for 45 minutes, then with peroxidase-conjugated streptavidin (Kirkegaard & Perry Laboratories Inc., Gaitherburg, Md., USA) for 30 minutes. After each incubation, the plate was washed 4 to 8 times with PBS containing 0.2% Tween 20. TMB (Kirkegaard & Perry Laboratories Inc.) was the peroxidase substrate used and, the absorbance of each well was quantified at 450 nm by a microplatereader (Molecular Devices Corp., CA, USA). TNF α levels in the supernatant were quantified with rm-TNF α as the standard.

SMILES	inhibition at 30 µM [%]
COc1ccc(-c2cc(C3CCN(C(=O)c4ccccc4)CC3)nc(N)n2)cc1 [Example 5, 2-Amino-4-(1-benzoyl-4-piperidinyl)-6-(4-methoxyphenyl)pyrimidine]	57
Nc1nc(-c2ccc(Cl)cc2)cc(C2CCN(C(=O)c3ccccc3)CC2)n1 [Example 6, 2-Amino-4-(1-benzoyl-4-piperidinyl)-6-(4-chlorophenyl)pyrimidine]	78
Nc1nc(Cc2ccc(Cl)cc2)cc(C2CCN(C(=O)c3ccccc3)CC2)n1 [Example 7, 2-Amino-4-(1-benzoyl-4-piperidinyl)-6-(4-chlorophenylmethyl)pyrimidine]	58
CCC(=O)N1CCC(c2nc(N)nc3ccccc23)CC1 [Example 16]	4
CCCC(=O)N1CCC(c2nc(N)nc3ccccc23)CC1 [Example 17]	8
CCCCCC(=O)N1CCC(c2nc(N)nc3ccccc23)CC1 [Example 19]	10
CCCCCCC(=O)N1CCC(c2nc(N)nc3ccccc23)CC1 [Example 20]	63
CCCCCCCC(=O)N1CCC(c2nc(N)nc3ccccc23)CC1 [Example 21]	74
CCCCCCCCC(=O)N1CCC(c2nc(N)nc3ccccc23)CC1 [Example 22]	64
CCCCCCCCCC(=O)N1CCC(c2nc(N)nc3ccccc23)CC1 [Example 23]	67
CCCCCCCCCCC(=O)N1CCC(c2nc(N)nc3ccccc23)CC1 [Example 24]	70
CC(C)(C)C(=O)N1CCC(c2nc(N)nc3ccccc23)CC1 [Example 26]	19
CC(C)(C)OC(=O)NCCCCCCC(=O)N1CCC(c2nc(N)nc3ccccc23)CC1 [Example 27, 2-amino-4-[1-(7-t-butoxycarbonylaminoheptanoyl)-4-piperidinyl]quinazoline]	95
CC(C)(C)OC(=O)NCCCCCCCC(=O)N1CCC(c2nc(N)nc3ccccc23)CC1 [Example 28, 2-amino-4-[1-(8-t-butoxycarbonylaminooctanoyl)-4-piperidinyl]quinazoline]	100
CC(C)(C)OC(=O)NCCCCCCCCCCC(=O)N1CCC(c2nc(N)nc3ccccc23)CC1 [Example 29, 2-amino-4-[1-(11-t-butoxycarbonylaminoundecanoyl)-4-piperidinyl]quinazoline]	100
Nc1nc(C2CCN(C(=O)CCCCCCCCCO)CC2)c2ccccc2n1 [Example 30]	64
COc1ccccc1C(=O)N1CCC(c2nc(N)nc3ccccc23)CC1 [Example 32]	30
COc1cccc(C(=O)N2CCC(c3nc(N)nc4ccccc34)CC2)c1 [Example 33]	18
Nc1nc(C2CCN(C(=O)c3ccccc3Cl)CC2)c2ccccc2n1 [Example 35]	72
Nc1nc(C2CCN(C(=O)c3cccc(Cl)c3)CC2)c2ccccc2n1 [Example 36]	42
Nc1nc(C2CCN(C(=O)c3ccc(Cl)cc3)CC2)c2ccccc2n1 [Example 37]	4
Nc1nc(C2CCN(C(=O)c3ccccc3[N+](=O)[O-])CC2)c2ccccc2n1 [Example 38]	30
Nc1nc(C2CCN(C(=O)c3cccc([N+](=O)[O-])c3)CC2)c2ccccc2n1 [Example 39]	12
Nc1nc(C2CCN(C(=O)c3ccc([N+](=O)[O-])cc3)CC2)c2ccccc2n1 [Example 40]	15
Nc1nc(C2CCN(C(=O)c3cccnc3)CC2)c2ccccc2n1 [Example 50]	18
Nc1nc(C2CCN(C(=O)c3ccncc3)CC2)c2ccccc2n1 [Example 51]	28
COc1cccc(C(=O)N2CCC(c3nc(N)nc4ccccc34)CC2)c1OC [Example 52]	20
COc1ccc(C(=O)N2CCC(c3nc(N)nc4ccccc34)CC2)c(OC)c1 [Example 53]	54
COc1ccc(C(=O)N2CCC(c3nc(N)nc4ccccc34)CC2)cc1OC [Example 56]	-28
